US20200354348A1, “SEMISYNTHETIC AURONES AND METHODS OF USE THEREOF” (University of Kentucky Research Foundation, priority 2018, published 2020)
Entries after “also recorded” stand apart in the source; their conditions may differ.

Assays:
Cdc2 (CDK1) = Cdc2 (CDK1) phosphorylation (FIG. 7B); assay type: cell-based
MALME-3M = test: NCI60 screening; assay type: cell-based; details: Homo sapiens, Melanoma
HBP-ALL = test: IC50 in leukemia cell lines; assay type: cell-based; details: T-ALL
UACC-257 = test: NCI60 screening; assay type: cell-based; details: Homo sapiens, Melanoma
CCRF-CEM = test: IC50 in leukemia cell lines; assay type: cell-based; details: Homo sapiens, T-ALL
MOLT-4 = test: IC50 in leukemia cell lines; assay type: cell-based; details: Homo sapiens; Molt-4, T-ALL
EKVX = test: NCI60 screening; assay type: cell-based; details: Homo sapiens, Non-Small Cell Lung Cancer
Molt-16 = test: IC50 in leukemia cell lines; assay type: cell-based; details: Homo sapiens; Molt-16, T-ALL
SK-MEL-28 = test: NCI60 screening; assay type: cell-based; details: Homo sapiens, Melanoma
PC-3 cells [1] = test: Proliferation inhibition assay, PC-3; assay type: cell-based; details: Homo sapiens, PC-3, Table 2
Method: Cell Culture. LS174T (colon cancer cells), PC-3 (prostate cancer cells), MCF-7 (beast) and A549 (lung) were cultured in the medium recommended by American Type Culture Collection at 37° C. with 5% CO2 atmosphere in a water jacketed incubator. Ovcar-8 and NCI/ADR-RES are gifts from Dr. Markos Leggas. Alpha-tubulin antibodies, TRITC-conjugated anti-rabbit antibody.
Proliferation inhibition assay. Cancer cells were seeded into 24-well plates at a density of 20,000 cells per well in 1 mL of culture medium and cultured overnight at 37° C. Compounds and the vehicle control DMSO were added to the cells. After 6 days, medium was removed and 100 μL of trypsin was added. Then the cells resuspended in pbs were counted by Vi-CELL XR 2.03 (Beckman Coulter, Inc. USA). The ratio R of the number of viable cells in the compound treatment group to the number of viable cells in DMSO treatment group was taken as relative growth, and the percentage growth inhibition was calculated as: (1−R)*100. For initial testing, compounds were added to the cells at a final concentration 10 μM. Active compounds at 10 μM would be tested at lower concentrations.

Myc-induced T-ALL = test: Anti-leukemia activity in the zebrafish model; assay type: in vivo
Method: Rag2:Myc-GFP zebrafish at 21 days of age were treated with DMSO, Aurone 4a, or 4r in 1.5 mL fish system water in 12-well plates. Zebrafish were treated with compound for 2 days, removed from drug for 1 day, and treated for two more days in fresh compound. Animals were imaged at the start and end of treatment using a fluorescence-equipped dissecting microscope at 350 ms exposure. The GFP image was overlaid onto the bright-field image of each animal in Photoshop, and the percent change in leukemia burden was calculated by normalizing the GFP+ area to the total area of the animal in ImageJ.

HEK193T cells = test: In vivo microtubule assembly assay in cells; assay type: cell-based
Method: In vivo microtubule assembly assay. The amount of insoluble polymerized microtubules and soluble tubulin dimers in cells after exposure to compounds were detected following the method by Blagosklommy et al. (Cancer research 55, 4623-4626 (1995). Cells were seeded in 6-well plate at 50% confluency and cultured overnight. DMSO or compounds were added and the cells were incubated for additional 6 hours. The medium was removed and cells were washed with PBS three times followed by addition of lysis buffer [20 mM Tris-HCl (pH 6.8), 1 mM MgCl2, 2 mM EGTA, 20 μg/mL aprotinin, 20 μg/mL leupeptin, 1 mM PMSF, 1 mM orthovanadate, and 0.5% NP40]. The lysates were centrifuged at 12000 g for 10 min to obtain supernatants and pellets, where were mixed with loading buffer and boiled. Then standard western blot analysis against β-tubulin was performed as described by our previous work. (ACS Chem Biol 8, 796-803, doi:10.1021/cb3005353 (2013)).

[2] = system: LS174T colon and PC3 prostate cancer cells; test: Combination with CDK inhibitor R03306, proliferation; assay type: cell-based
PC-3 cells [3] = test: Immunofluorescence imaging of tubulin networks; assay type: cell-based; details: α-tubulin immunofluorescence
Method: Tubulin networks were examined by confocal immunofluorescence imaging. Briefly, PC3 cells were placed at a density of 80,000/mL to 24-well plates equipped with round microscope glass cover slides. After culturing at 37° C. for 24 hours, DMSO or compounds were added to the cells and incubated for additional 6 hours. Then the medium was removed and the cells were washed with pbs three times. Primary anti-α-tubulin antibody was added and incubated overnight at 4° C. After additional washing, secondary TRITC-conjugated anti-rabbit antibody was added for 40 min, followed by additional washing and staining with DAPI. Final washing was performed and the cover slides were inverted onto glass slides. Images (40×) were taken using a Nikon confocal microscope with excitation at 557 nm and emission at 576 nm.

REH = test: IC50 in leukemia cell lines; assay type: cell-based; details: Homo sapiens, B-ALL
A549(ATCC) = test: NCI60 screening; assay type: cell-based; details: Homo sapiens, Non-Small Cell Lung Cancer
Nalm-16 = test: IC50 in leukemia cell lines; assay type: cell-based; details: NALM16; Nalm-16, B-ALL

Question: How did the “Cdc2 (CDK1) phosphorylation at tyrosine 15” value (Cdc2 (CDK1)) turn out when CCn1cc(/C=C2\Oc3cc(OCC#N)ccc3C2=O)c2cc(OC)ccc21 [Aurone 4a, (Z)-2-((2-((1-Ethyl-5-methoxy-1H-indol-3-yl)methylene)-3-oxo-2,3-dihydrobenzofuran-6-yl)oxy)acetonitrile] was run?
Answer: Its value is “decreasing phosphorylation at tyrosine 15”.

Question: And the GI50 (MALME-3M)?
Answer: The GI50 was over 100000 nM.

Question: What about the IC50 (HBP-ALL) of the same compound?
Answer: The IC50 was 94 nM.

Question: What about the GI50 (UACC-257) of the same compound?
Answer: Its GI50 is 67100 nM.

Question: What about the IC50 (CCRF-CEM) of the same compound?
Answer: Its IC50 is 244 nM.

Question: And the IC50 (MOLT-4)?
Answer: The IC50 was 241 nM.

Question: What about the GI50 (EKVX) of the same compound?
Answer: The GI50 was 2730 nM.

Question: And the IC50 (Molt-16)?
Answer: Its IC50 is 234 nM.

Question: What about the GI50 (SK-MEL-28) of the same compound?
Answer: Its GI50 is 10200 nM.

Question: What about the inhibition at 0.1 µM (PC-3 cells [1]; 100 nM) of the same compound?
Answer: Its inhibition at 0.1 µM is 58 ± 11%.

Question: And the inhibition at 0.3 µM (PC-3 cells [1]; 300 nM)?
Answer: Its inhibition at 0.3 µM is 93 ± 2.8%.

Question: What about the inhibition at 1 µM (PC-3 cells [1]; 1 μM) of the same compound?
Answer: The inhibition at 1 µM was 95 ± 2.5%.

Question: What about the “gross toxicity on zebrafish” value (Myc-induced T-ALL) of the same compound?
Answer: The value was “no gross toxicity was observed”.

Question: And the “inhibition of Myc-induced T-ALL” value (Myc-induced T-ALL; 5 days)?
Answer: The value was “blocked the progress of T-ALL; also recorded: significant inhibition of Myc-induced T-ALL”.

Question: And the “decrease in leukemia burden” value (Myc-induced T-ALL; percent change over treatment, p=0.0011 vs DMSO)?
Answer: The value was 45.58%.

Question: What about the “tubulin polymerization in cells” value (HEK193T cells) of the same compound?
Answer: The value was “decreased tubulin polymerization”.

Question: What about the “combination effect with R03306 on proliferation” value [2] of the same compound?
Answer: The value was “synergistic effects”.

Question: And the microtubule structures (PC-3 cells [3])?
Answer: Its microtubule structures is “inhibited microtubule structures”.

Question: What about the IC50 (REH) of the same compound?
Answer: The IC50 was 287 nM.

Question: And the GI50 (A549(ATCC))?
Answer: The GI50 was 5100 nM.

Question: And the IC50 (Nalm-16)?
Answer: Its IC50 is 272 nM.
